In one experiment the target is CDK6/Cyclin D3 (Homo sapiens (Human), UniProt Q00534). As to the kind of experiment: CDK6/Cyclin D3 kinase TR-FRET inhibition assay. In kind it is biochemical. The settings on record: 1 mM ATP, Rb (Ser780)-biotin substrate, read-out: CDK6D3 IC50. As for the experimental part:
(§1) Compounds disclosed herein were tested for inhibition of CDK4/Cyclin D1 or CDK6/Cyclin D3 kinase in an assay based on the time-resolved fluorescence-resonance energy transfer (TR-FRET) methodology. The assay was carried out in 384-well low volume black plates in a reaction mixture containing CDK4/Cyclin D1 or CDK6/Cyclin D3, 1 mM ATP, 0.15 μM Rb (Ser780)-biotin substrate and 0-10 μM compound in buffer containing 50 mM HEPES pH7.0, 0.02% NaN3, 0.01% BSA, 0.1 mM Orthovanadate, 50 mM MgCl2, 1 mM DTT and 0.005% Tween-20. The kinase was incubated with compound for 60 minutes at room temperature and the reaction was initiated by the addition of ATP and Rb (Ser780)-biotin substrate. After reaction at room temperature for 120 minutes, an equal volume of stop/detection solution was added according to the manufacture's instruction (Cisbio Bioassays). The stop/detection solution contained Streptavidin-XL665 and Anti-pRb (Ser780) mAb-Eu Cryptate in Detection buffer (Cisbio Bioassays). Plates were incubated at room temperature for 60 minutes, and the TR-FRET signals (ex337 nm, em665 nm/620 nm) were recorded on a PHERAstar FSX plate reader (BMG Labtech). The inhibition percentage of CDK4/Cyclin D1 or CDK6/Cyclin D3 kinase activity in presence of increasing concentrations of compounds was calculated based on the ratio of fluorescence at 665 nm to that at 620 nm. The IC50 for each compound was derived from fitting the data to the four-parameter logistic equation by Dotmatics.
A general note: Time-resolved FRET reads energy transfer from a long-lived donor to a nearby acceptor.

The next experiment concerns the target CDK4/Cyclin D1 (Homo sapiens (Human), UniProt P11802). As to the kind of experiment: CDK4/Cyclin D1 kinase TR-FRET inhibition assay. In kind it is biochemical. The settings on record: 1 mM ATP, Rb (Ser780)-biotin substrate, read-out: CDK4D1 IC50. As for the experimental part:
as §1

The structures appear in SMILES notation.

By IC50 is commonly meant the midpoint of a concentration-inhibition curve.

Sequence of CDK4/Cyclin D1 (P11802 whole entry): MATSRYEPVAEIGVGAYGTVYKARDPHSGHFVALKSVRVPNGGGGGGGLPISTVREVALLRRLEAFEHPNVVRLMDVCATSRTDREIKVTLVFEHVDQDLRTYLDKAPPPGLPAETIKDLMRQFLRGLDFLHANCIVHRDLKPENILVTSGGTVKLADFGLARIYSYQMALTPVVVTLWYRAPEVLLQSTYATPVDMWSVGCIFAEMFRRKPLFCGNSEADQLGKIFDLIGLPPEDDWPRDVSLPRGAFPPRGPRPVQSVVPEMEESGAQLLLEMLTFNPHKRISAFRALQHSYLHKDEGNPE
Sequence of CDK4/Cyclin D1 (P24385 whole entry partner): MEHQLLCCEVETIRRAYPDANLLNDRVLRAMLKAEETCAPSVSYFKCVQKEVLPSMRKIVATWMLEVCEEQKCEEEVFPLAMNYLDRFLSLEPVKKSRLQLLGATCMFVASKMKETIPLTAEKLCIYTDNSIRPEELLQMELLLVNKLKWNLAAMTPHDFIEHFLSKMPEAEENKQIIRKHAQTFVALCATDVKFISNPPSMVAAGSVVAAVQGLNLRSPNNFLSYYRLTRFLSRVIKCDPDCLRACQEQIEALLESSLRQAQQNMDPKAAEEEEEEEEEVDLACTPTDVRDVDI
Sequence of CDK6/Cyclin D3 (Q00534 whole entry): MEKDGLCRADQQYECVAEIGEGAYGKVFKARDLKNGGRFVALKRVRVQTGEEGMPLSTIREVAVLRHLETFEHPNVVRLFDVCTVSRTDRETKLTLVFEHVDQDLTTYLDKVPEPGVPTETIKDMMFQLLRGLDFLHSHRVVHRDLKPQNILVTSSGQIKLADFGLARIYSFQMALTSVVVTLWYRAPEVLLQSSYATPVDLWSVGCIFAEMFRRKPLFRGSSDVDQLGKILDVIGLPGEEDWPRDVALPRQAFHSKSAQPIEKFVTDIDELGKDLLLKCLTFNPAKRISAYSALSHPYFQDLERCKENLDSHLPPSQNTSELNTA
Sequence of CDK6/Cyclin D3 (P30281 whole entry partner): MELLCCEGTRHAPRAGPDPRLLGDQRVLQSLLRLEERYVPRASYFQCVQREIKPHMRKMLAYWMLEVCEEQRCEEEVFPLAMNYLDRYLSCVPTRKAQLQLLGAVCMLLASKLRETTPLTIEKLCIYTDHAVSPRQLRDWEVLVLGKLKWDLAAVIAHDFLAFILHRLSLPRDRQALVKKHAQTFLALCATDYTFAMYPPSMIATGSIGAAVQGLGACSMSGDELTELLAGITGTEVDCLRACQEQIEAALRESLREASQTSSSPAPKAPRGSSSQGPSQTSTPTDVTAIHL

For the molecule `CC(C)c1c(C(C)(C)O)cnc2cc(F)c(-c3nc(N[C@@H]4CCOC[C@H]4O)ncc3F)cc12` [Example 116, (3S,4R)-4-((5-fluoro-4-(7-fluoro-3-(2-hydroxypropan-2-yl)-4-isopropylquinolin-6-yl)pyrimidin-2-yl)amino)tetrahydro-2H-pyran-3-ol], the IC50 at CDK6/Cyclin D3 was 198 nM; at CDK4/Cyclin D1 it was 10.9 nM.

For `CC(C)c1c(CNc2ncccn2)cnc2ccc(-c3nc(N[C@@H]4CCOC[C@H]4O)ncc3F)cc12` [Example 45, (3S,4R)-4-((5-fluoro-4-(4-isopropyl-3-((pyrimidin-2-ylamino)methyl)quinolin-6-yl)pyrimidin-2-yl)amino)tetrahydro-2H-pyran-3-ol], the values for the IC50 at CDK6/Cyclin D3 and at CDK4/Cyclin D1 were 286 nM and 22 nM, respectively.

`CC(C)c1c(CNC[C@@H]2CCOC2)cnc2ccc(-c3nc(N[C@@H]4CCOC[C@H]4O)ncc3F)cc12` [Example 33, (3S,4R)-4-((5-fluoro-4-(4-isopropyl-3-(((((S)-tetrahydrofuran-3-yl)methyl)amino)methyl)quinolin-6-yl)pyrimidin-2-yl)amino)tetrahydro-2H-pyran-3-ol]: the results for the IC50 at CDK6/Cyclin D3 and at CDK4/Cyclin D1 were 792 nM and 22 nM, respectively.

Consider `CC(C)c1c([C@H](C)N2CC[C@@H](F)C2)cnc2ccc(-c3nc(N[C@@H]4CCOC[C@H]4O)ncc3F)cc12` [Example 47, (3S,4R)-4-((5-fluoro-4-(3-((S)-1-((R)-3-fluoropyrrolidin-1-yl)ethyl)-4-isopropylquinolin-6-yl)pyrimidin-2-yl)amino)tetrahydro-2H-pyran-3-ol], for which the half-maximal inhibitory concentration (IC50) on CDK6/Cyclin D3 came to 250 nM; on CDK4/Cyclin D1 it was 25 nM.

In the case of `COCc1cnc2ccc(-c3nc(N[C@@H]4CCOC[C@H]4O)ncc3F)cc2c1C(C)C` [Example 31, (3S,4R)-4-((5-fluoro-4-(4-isopropyl-3-(methoxymethyl)quinolin-6-yl)pyrimidin-2-yl)amino)tetrahydro-2H-pyran-3-ol], the half-maximal inhibitory concentration (IC50) is 275 nM at CDK6/Cyclin D3 and 25 nM on CDK4/Cyclin D1.

For the molecule `CC(C)c1c(CNC2CCOCC2)cnc2ccc(-c3nc(N[C@@H]4CCOC[C@H]4O)ncc3F)cc12` [Example 29, (3S,4R)-4-((5-fluoro-4-(4-isopropyl-3-(((tetrahydro-2H-pyran-4-yl)amino)methyl)quinolin-6-yl)pyrimidin-2-yl)amino)tetrahydro-2H-pyran-3-ol], the IC50 on CDK6/Cyclin D3 amounted to 860 nM; at CDK4/Cyclin D1 it was 20 nM.

For `CC(C)c1c(CN)cnc2ccc(-c3nc(N[C@@H]4CCOC[C@H]4O)ncc3F)cc12` [Example 38, (3S,4R)-4-((4-(3-(aminomethyl)-4-isopropylquinolin-6-yl)-5-fluoropyrimidin-2-yl)amino)tetrahydro-2H-pyran-3-ol], the IC50 amounted to 176 nM at CDK6/Cyclin D3 and 4.4 nM at CDK4/Cyclin D1.

For `Cc1cnc2ccc(-c3nc(N[C@@H]4CCOC[C@H]4O)ncc3F)cc2c1C(C)C` [Example 6, (3S,4R)-4-((5-fluoro-4-(4-isopropyl-3-methylquinolin-6-yl)pyrimidin-2-yl)amino)tetrahydro-2H-pyran-3-ol], the IC50 at CDK6/Cyclin D3 was 158 nM; on CDK4/Cyclin D1, 9.3 nM.

With `CC(C)c1c(C2(O)CCCC2)cnc2ccc(-c3nc(N[C@@H]4CCOC[C@H]4O)ncc3F)cc12` [Example 50, (3S,4R)-4-((5-fluoro-4-(3-(1-hydroxycyclopentyl)-4-isopropylquinolin-6-yl)pyrimidin-2-yl)amino)tetrahydro-2H-pyran-3-ol], the values for the IC50 at CDK6/Cyclin D3 and at CDK4/Cyclin D1 were 185 nM and 4.4 nM, respectively.

On to `CC(C)c1c(CNC2CC(F)(F)C2)cnc2c(F)cc(-c3nc(N[C@@H]4CCOC[C@H]4O)ncc3F)cc12` [Example 52, (3S,4R)-4-((4-(3-(((3,3-difluorocyclobutyl)amino)methyl)-8-fluoro-4-isopropylquinolin-6-yl)-5-fluoropyrimidin-2-yl)amino)tetrahydro-2H-pyran-3-ol], for which the IC50 amounted to 240 nM on CDK6/Cyclin D3 and 10 nM on CDK4/Cyclin D1.

Turning to `CC(C)c1c(CN2CCCOCC2)cnc2ccc(-c3nc(N[C@@H]4CCOC[C@H]4O)ncc3F)cc12` [Example 44, (3S,4R)-4-((4-(3-((1,4-oxazepan-4-yl)methyl)-4-isopropylquinolin-6-yl)-5-fluoropyrimidin-2-yl)amino)tetrahydro-2H-pyran-3-ol], the concentration for half-maximal inhibition (IC50) at CDK6/Cyclin D3 is 475 nM; at CDK4/Cyclin D1 it was 25 nM.

Consider `CC(C)c1c(CN2CCOCC2=O)cnc2ccc(-c3nc(N[C@@H]4CCOC[C@H]4O)ncc3F)cc12` [Example 13, 4-((6-(5-fluoro-2-(((3S,4R)-3-hydroxytetrahydro-2H-pyran-4-yl)amino)pyrimidin-4-yl)-4-isopropylquinolin-3-yl)methyl)morpholin-3-one], for which the results for the half-maximal inhibitory concentration (IC50) on CDK6/Cyclin D3 and at CDK4/Cyclin D1 were 464 nM and 16 nM, respectively.

`CC(C)c1c(C(C)(C)O)cnc2ccc(-c3nc(N[C@@H]4CCOC[C@H]4O)ncc3F)cc12` [Example 2]: the results for the IC50 on CDK6/Cyclin D3 and at CDK4/Cyclin D1 were 69 nM and 4.6 nM, respectively.

As to `COc1ccc(NCc2cnc3ccc(-c4nc(N[C@@H]5CCOC[C@H]5O)ncc4F)cc3c2C(C)C)cc1` [Example 46, (3S,4R)-4-((5-fluoro-4-(4-isopropyl-3-(((4-methoxyphenyl)amino)methyl)quinolin-6-yl)pyrimidin-2-yl)amino)tetrahydro-2H-pyran-3-ol], the IC50 was determined as 1040 nM on CDK6/Cyclin D3 and 65 nM on CDK4/Cyclin D1.

On to `CC(C)c1c(C(C)(C)O)cnc2cc(Cl)c(-c3nc(N[C@@H]4CCOC[C@H]4O)ncc3F)cc12` [Example 70, (3S,4R)-4-((4-(7-chloro-3-(2-hydroxypropan-2-yl)4-isopropylquinolin-6-yl)-5-fluoropyrimidin-2-yl)amino)tetrahydro-2H-pyran-3-ol], for which the IC50 was determined as 508 nM on CDK6/Cyclin D3 and 31 nM on CDK4/Cyclin D1.

Take `CC(C)c1c([C@H](C)N)cnc2ccc(-c3nc(N[C@@H]4CCOC[C@H]4O)ncc3F)cc12` [Example 55, (3S,4R)-4-((4-(3-((S)-1-aminoethyl)-4-isopropylquinolin-6-yl)-5-fluoropyrimidin-2-yl)amino)tetrahydro-2H-pyran-3-ol]: the IC50 at CDK6/Cyclin D3 is 1090 nM; on CDK4/Cyclin D1, 34 nM.

Turning to `CC(C)c1ccnc2ccc(-c3nc(N[C@@H]4CCOC[C@H]4O)ncc3Cl)cc12` [Example 4, (3S,4R)-4-((5-chloro-4-(4-isopropylquinolin-6-yl)pyrimidin-2-yl)amino)tetrahydro-2H-pyran-3-ol], the figures for the IC50 on CDK6/Cyclin D3 and on CDK4/Cyclin D1 were 418 nM and 38 nM, respectively.

Take `CC(C)c1c(CN2CC(O)C2)cnc2ccc(-c3nc(N[C@@H]4CCOC[C@H]4O)ncc3F)cc12` [Example 16, 1-((6-(5-fluoro-2-(((3S,4R)-3-hydroxytetrahydro-2H-pyran-4-yl)amino)pyrimidin-4-yl)-4-isopropylquinolin-3-yl)methyl)azetidin-3-ol]: the results for the half-maximal inhibitory concentration (IC50) on CDK6/Cyclin D3 and at CDK4/Cyclin D1 were 600 nM and 15 nM, respectively.

Regarding `CC(C)c1c(C(C)(C)O)cnc2c(F)cc(-c3nc(N[C@@H]4CCOC[C@H]4O)ncc3F)cc12` [Example 67, (3S,4R)-4-((5-fluoro-4-(8-fluoro-3-(2-hydroxypropan-2-yl)-4-isopropylquinolin-6-yl)pyrimidin-2-yl)amino)tetrahydro-2H-pyran-3-ol], the IC50 was 42.7 nM on CDK6/Cyclin D3 and 2.5 nM on CDK4/Cyclin D1.

For `CC(C)c1c(CN2CCOC[C@H]2C)cnc2ccc(-c3nc(N[C@@H]4CCOC[C@H]4O)ncc3F)cc12` [Example 58, (3S,4R)-4-((5-fluoro-4-(4-isopropyl-3-(((R)-3-methylmorpholino)methyl)quinolin-6-yl)pyrimidin-2-yl)amino)tetrahydro-2H-pyran-3-ol], the results for the concentration for half-maximal inhibition (IC50) on CDK6/Cyclin D3 and at CDK4/Cyclin D1 were 406 nM and 14 nM, respectively.

As for `CC(C)c1c(CN(C)C)cnc2ccc(-c3nc(N[C@@H]4CCOC[C@H]4O)ncc3F)cc12` [Example 11, (3S,4R)-4-((4-(3-((dimethylamino)methyl)-4-isopropylquinolin-6-yl)-5-fluoropyrimidin-2-yl)amino)tetrahydro-2H-pyran-3-ol], the IC50 was 567 nM on CDK6/Cyclin D3 and 21 nM on CDK4/Cyclin D1.

For `CC(C)c1c(CN[C@@H]2CCCOC2)cnc2c(F)cc(-c3nc(N[C@@H]4CCOC[C@H]4O)ncc3F)cc12` [Example 53, (3S,4R)-4-((5-fluoro-4-(8-fluoro-4-isopropyl-3-((((R)-tetrahydro-2H-pyran-3-yl)amino)methyl)quinolin-6-yl)pyrimidin-2-yl)amino)tetrahydro-2H-pyran-3-ol], the IC50 was 348 nM on CDK6/Cyclin D3 and 12 nM on CDK4/Cyclin D1.

Consider `CC(C)c1c(CN2C[C@@H](O)[C@H](F)C2)cnc2ccc(-c3nc(N[C@@H]4CCOC[C@H]4O)ncc3F)cc12` [Example 54, (3R,4R)-4-fluoro-1-((6-(5-fluoro-2-(((3S,4R)-3-hydroxytetrahydro-2H-pyran-4-yl)amino)pyrimidin-4-yl)-4-isopropylquinolin-3-yl)methyl)pyrrolidin-3-ol], for which the results for the IC50 at CDK6/Cyclin D3 and on CDK4/Cyclin D1 were 361 nM and 19 nM, respectively.

For the origin of these results see patent publication US20240300937A1, “Substituted 6-(Pyrimidin-4-yl)Quinoline Compounds as Cyclin Dependent Kinase Inhibitors” (BeiGene, Ltd., priority 2022, published 2024).
